Assay [1] concerns dwarfed rice plant (Oryza sativa cv. Tan-ginbozu). Kind of assay: rice leaf lamina inclination bioassay, whole plant method. It is filed as in vivo. The method, then:
In the figure, “Angle” indicates an inclination angle; and the results are indicated with “Cont” for control (no treatment); “CT” for cathasterone (100 ng); “TE” for teasterone (100 ng); and “BL” for brassinolide (0.1 ng) wherein each dose per plant is shown. Generally, the biological activity of brassinosteroids is often evaluated by the in vitro rice leaf lamina inclination bioassay (explantation method: Wada et al., Plant Cell Physiol., 22, pp.323-325, 1981; Takatsuto, J. Chromat. A., 658, pp.3-15, 1994) which is highly sensitive and reliable. However, this conventional method is not suitable for analyzing the mechanism of action of brassinosteroid biosynthesis inhibitors. Recently, Fujioka et al. reported a method (whole plant method) in which the rice leaf lamina inclination bioassay is improved as an […] system. This method reflects the actual biosynthesis process of brassinosteroids by administration of various precursors of brassinolide. The inhibitory action of the compound of the present invention against the brassinolide biosynthesis was evaluated by the explantation method and the whole plant method. The rice leaf lamina inclination bioassay was performed essentially according to the procedure reported by Fujioka et al. as mentioned above by using a dwarfed rice plant (Oryza sativa cv. Tan-ginbozu). Seeds were immersed in water for 2 days at 28° C., and germinated seeds were subjected to selection of those having a uniform coleoptile length (about 1 to 2 mm). Five germinated seeds were planted on 30 ml of 1% agar medium contained in a glass jar (inner diameter: 26 mm×60 mm), and incubated under the aforementioned conditions for 3 days. Each test compound for the bioassay was dissolved in ethanol and placed on a lamina in an amount of […] by using a microsyringe. After the plants were incubated under the same growth conditions for 2 days, the external angle between the leaf lamina and its sheath was measured by using an annular protractor. Thirty plants in total (6 jars) were used for each treatment.

In another assay the test system is Arabidopsis. As to the kind of experiment: Arabidopsis assay with addition of brassinolide precursors. It is filed as in vivo. Here is the method: (§1) The Arabidopsis germination assay was performed as follows. Seeds of wild-type and det were treated at a low temperature (2° C.) for 2 days, and the surfaces were sterilized with 1% NaOCl solution for 2 minutes and washed seven times with sterilized distilled water. The seeds were sown on 1% agar solid medium containing 0.5×Murashige and Skoog (1962) salt and 1.5% (w/v) sucrose in a plastic plate in the presence or absence of the test compound. The wild-type plant and det2 plant were grown in a growth chamber for 16 hours under a light condition (240 mE/m2s) and for 8 hours under a dark condition (25° C.). For the screening experiment, the plate was sealed with Parafilm (American National Can Co., Ltd., Chicago, Ill., USA). For the restoration experiment that required a longer experimental period, the seeds were sown on 1% agar solid medium containing 0.5×Murashige and Skoog (1962) salt and 1.5% (w/v) sucrose in Agripot (Kirin Brewery Co., Ltd.). The plants were grown in a growth chamber for 16 hours under a light condition (240 mE/m2s) and for 8 hours under a dark condition (28° C.).
In order to confirm the action of RMB-61 also in the Arabidopsis assay, the seeds were grown with addition of the aforementioned brassinolide precursors, and recovery of the growth retardation caused by the RMB-61 treatment was observed. […] If RMB-61 is a specific inhibitor against the oxidation of cathasterone, it is expected that the morphological traits of the treated plants have similarities to the phenotypes of the mutants such as cpd (Szekeres et al., Cell, 85, pp.171-182, 1996). It is further expected that the action of RMB-61 will disappear when typhasterol, castasterone or brassinolide is administered, and in addition, the cpd phenotypes caused by brassinosteroids will disappear.

Assay [2] has as its system dwarfed rice plant (Oryza sativa cv. Tan-ginbozu). As to the kind of experiment: rice leaf lamina inclination bioassay, explantation method. It is filed as in vivo. The conditions noted are these: RMB-61 1 μg/plant; FIG. 1.
Assay [3] deals with Arabidopsis (wild-type, Colombia). Kind of assay: Arabidopsis germination assay. It is filed as in vivo. Here is the method:
Arabidopsis mutants such as det2 (de-etiolation) and cpd (constitutive photomorphogenesis and dwarfism) show strong dwarfism manifested as curled leaves in deep green. Although this phenotype disappears when brassinolide is administered externally, other plant hormones such as IAA and gibberellin are ineffective. Based on these findings, the compound of the present invention (Compound 1 obtained in Example 1) was used in Arabidopsis (wild-type, Colombia) germination assay. Screening was performed under a light condition with criteria whether or not the compound generates abnormality 1) which is morphologically similar to mutants in the brassinosteroid biosynthesis and 2) which disappears when brassinolide is administered. It was also examined whether or not the morphological change induced by the test compound was restored to the morphology of wild-type by addition of braassinolide under a dark condition.
as §1

The test system of assay [4] is rice (Oryza sativa cv. Koshihikari). Kind of assay: rice growth bioassay (rice elongation test). It is filed as in vivo. The note with it: for growth of the rice plant (length of shoots): in vivo. The method, then: Further, rice growth bioassay was performed as follows. Seeds of rice (Oryza sativa cv. Koshihikari) were immersed in tap water for 2 hours, and then 10 seeds were immersed in 2 ml of 10 mM sodium acetate buffer (pH 5.4) containing 10 mM CaCl2 filled in a sterilized 15-ml test tube in the presence or absence of a test compound. The plants were grown in a growth chamber for 16 hours under a light condition (240 mE/m2s) and for 8 hours under a dark condition (25° C.). The plants were collected and the length of shoots was measured.

For the next assay, the system named is vessel elements. The conditions noted are these: cited from earlier work.
The subject of the next assay is endogenous castasterone. The conditions noted are these: side effect; cited from earlier work.

Bounds are passed on as bounds.

On to `CC(O)(c1ccccc1)C(Cc1ccc(Cl)cc1)n1cncn1` (centres unmarked) [Compound 1, 4-(4-chlorophenyl)-2-phenyl-3-(1,2,4-triazoyl)butan-2-ol], for which, in assay [1] (RMB-61 5 μg/plant, FIG. 2), the “effect on the inclination action by teasterone, typhasterol and castasterone” value is given as “failed to offset”. Further, the “effect on the action of cathasterone (inclination angle)” value in assay [1] (RMB-61 5 μg/plant, cathasterone 100 ng, FIG. 2) is given as “inhibited the action of cathasterone”. Moreover, the “response of the rice plant to brassinosteroid after adding teasterone or brassinolide” value in assay [1] (rice plant in which the effect of cathasterone was negated by RMB-61) is given as “restored”. The “greening effect on administration of brassinosteroids” value in the assay on Arabidopsis (brassinosteroids except for cathasterone) is reported as “eliminated”. Further, the greening of plants result in the assay on Arabidopsis (under weak light) is reported as “promoted greening”. Moreover, the “growth retardation in the presence of cathasterone” value with Arabidopsis (with cathasterone) is reported as “maintained”. Further, the “action of RMB-61 (growth retardation) in presence of brassinosteroids” value in the assay with Arabidopsis (with teasterone, 3-deoxoteasterone, typhasterol, castasterone or brassinolide) was “strongly inhibited the action of RMB-61”. Further, in assay [2], the “inhibition of the action of brassinolide (inclination angle)” value is “absolutely no inhibition”. Moreover, the induction of dwarfism entry in assay [3] (at 10^−6 M, among the test compounds) was “most potent induction of dwarfism”. Moreover, in assay [3] (dose-effect test), the “concentration at which shapes of the plants significantly resemble det2 mutant” value is given as ≥ 10^−5 M. Also, the “dwarfism / morphological change on simultaneous administration of brassinolide” value in assay [3] (with brassinolide) is recorded as “negated”. For the same molecule, in assay [4], the “growth of the rice plant (length of shoots)” value (shortened to “growth of the rice plant”) is reported as “no effect”. For the same molecule, the “effect on the gibberellin treatment” value in assay [4] (with gibberellin) is given as “completely failed to effect the gibberellin treatment”.

For `CC(C)(C)[C@@H](O)[C@@H](Cc1ccc(Cl)cc1)n1cncn1` [paclobutrazol, reference compound], the “growth of the rice plant” value in assay [4] was “elongation retardation action”.

`CC(C)(C)C(O)/C(=C\c1ccc(Cl)cc1)n1cncn1` (centres unmarked) [Uniconazol]: the “differentiation of vessel elements induced by brassinolide” value in the assay on vessel elements is given as “inhibits differentiation of vessel elements”. The “amount of endogenous castasterone” value in the assay on endogenous castasterone is “slight reduction”. Besides, the “growth of the rice plant” value in assay [4] is reported as “strong growth retardation action”.

Values taken from patent publication US6388089B1, “Brassinosteroid biosynthesis inhibitors” (Riken, priority 1998, dated 2002).
